Values quoted from earlier work in patent publication US20180110792A1, “COMPOSITIONS AND METHODS FOR INHIBITING GLYCATION REACTIONS” (Access Business Group International LLC, priority 2016, published 2018).

Conditions: human, in vivo

## N=C(N)NN [aminoguanadine]
  adverse effects in clinical trials: demonstrated adverse effects in clinical trials
